Test results from PMC10410513, “Differential roles for ACBD4 and ACBD5 in peroxisome–ER interactions and lipid metabolism” (The Journal of Biological Chemistry, 2023).

Assays:
ACBD4 = target: T1, ACBD4 (Homo sapiens, UniProt Q8NC06); experiment: competition with […]C18:1-CoA, pull-down on Ni-NTA resin; format: binding; conditions: 2 uM protein, 5 uM [14C]C18:1-CoA, 0.2-20 uM competitor
T1 construct: recombinant MBP-His tagged, E. coli, amylose resin purified, tag kept
T1 sequence (Q8NC06 1-305 isoform Q8NC06-2): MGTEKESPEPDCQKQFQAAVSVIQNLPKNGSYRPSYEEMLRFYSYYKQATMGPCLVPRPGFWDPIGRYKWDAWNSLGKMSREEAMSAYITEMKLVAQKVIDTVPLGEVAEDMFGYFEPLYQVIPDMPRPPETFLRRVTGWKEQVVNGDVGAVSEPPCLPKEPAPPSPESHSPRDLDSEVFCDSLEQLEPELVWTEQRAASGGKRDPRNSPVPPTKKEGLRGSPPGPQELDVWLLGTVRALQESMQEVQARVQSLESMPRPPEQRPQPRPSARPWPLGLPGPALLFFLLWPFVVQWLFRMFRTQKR

ACBD5 = target: T2, ACBD5 (Homo sapiens, UniProt Q5T8D3); experiment: as above; format: binding; conditions: 2 uM protein, 5 uM [14C]C18:1-CoA, 0.2-20 uM competitor
T2 construct: recombinant MBP-His tagged, E. coli, amylose resin purified, tag kept
T2 sequence (Q5T8D3 1-490 isoform Q5T8D3-2): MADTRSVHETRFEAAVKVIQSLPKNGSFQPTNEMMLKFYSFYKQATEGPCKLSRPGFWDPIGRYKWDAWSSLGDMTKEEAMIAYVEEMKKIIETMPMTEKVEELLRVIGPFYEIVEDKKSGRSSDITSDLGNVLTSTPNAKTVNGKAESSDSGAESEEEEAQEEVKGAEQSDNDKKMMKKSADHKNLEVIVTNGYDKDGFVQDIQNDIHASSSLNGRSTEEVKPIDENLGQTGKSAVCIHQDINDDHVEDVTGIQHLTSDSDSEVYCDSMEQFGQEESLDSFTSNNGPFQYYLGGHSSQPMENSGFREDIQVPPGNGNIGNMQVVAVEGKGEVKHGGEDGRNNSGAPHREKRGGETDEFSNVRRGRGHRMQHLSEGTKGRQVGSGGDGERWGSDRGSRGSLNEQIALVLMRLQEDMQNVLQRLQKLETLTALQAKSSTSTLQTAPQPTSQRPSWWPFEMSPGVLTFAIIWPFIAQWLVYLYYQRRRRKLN

SMILES: CCCCCCCCCCCCCCCCCCCCCCCC(=O)SCCNC(=O)CCNC(=O)[C@H](O)C(C)(C)COP(=O)(O)OP(=O)(O)OC[C@H]1O[C@@H](n2cnc3c(N)ncnc32)[C@H](O)[C@@H]1OP(=O)(O)O [C24-CoA]
- competition with [14C]C18:1-CoA, pull-down on Ni-NTA resin (ACBD4): ACBD4, which displayed a similar preference for long and very-long acyl-CoAs
- competition with [14C]C18:1-CoA, pull-down on Ni-NTA resin (ACBD5): a stronger preference for the very-long-chain C24-CoA compared to the two long-chain acyl-CoAs
